Measurements published in a melting point compilation (Tetko et al.).

Row | Compound | melting point [°C]
1 | CC(=O)C(=Cc1ccc(-c2cccc([N+](=O)[O-])c2)o1)C(C)=O | 153 to 154
2 | C[Si]1(C)N[Si](C)(C)N[Si](C)(C)N1 | -10
3 | CC12CCC3C(CCC4CC(O)CCC43C)C1CCC2O (stereo unspecified) | 167
4 | N#CC1(C#N)C2O[C@H](c3ccccc3)[C@@H](C3=C2CCCC3)C1(C#N)C#N | 168
5 | CC1(C)OC(C)(C(C)(C)O)CCC1C(=O)O (stereo unspecified) | 111
6 | [N-]=[N+]=NC(=O)C=Cc1ccc(C=CC(=O)N=[N+]=[N-])cc1 | 80
7 | CC(=O)c1sc2nc(-c3cccs3)cc(C(F)(F)F)c2c1N | 171 to 172
8 | C=CCOCC=C | -6
9 | COc1ccc(F)cc1C=O | 41 to 46
10 | CON=O | -16
11 | Cn1ncc2cc([N+](=O)[O-])ccc21 | 160
12 | c1ccc(Cc2ccc3c4ccccc4c4ccccc4c3c2Cc2ccccc2)cc1 | 178
13 | CC(=O)Nc1ccc(-c2ccc(/N=N/c3ccccc3)cc2)cc1 | 236 to 237
14 | N/N=C(/C(=O)c1ccc2c3c(cccc13)CC2)c1ccccc1 | 200
15 | CC(C)C1COC2(C)C=CC(=O)N12 (stereo unspecified) | 46 to 50
16 | O=Cc1ccc2nsnc2c1 | 90 to 92
17 | O=C(O)c1cc(I)c(I)c(I)c1 | 292
18 | CC(=O)OCC(OC(C)=O)C(OC1OC(COC(C)=O)C(OC(C)=O)C(OC(C)=O)C1OC(C)=O)C(OC(C)=O)C(C#N)OC(C)=O (stereo unspecified) | 132
19 | Cc1cc(C)cc(P(c2cc(C)cc(C)c2)c2cc(C)cc(C)c2)c1 | 160 to 162
20 | CCc1c(O)c(=O)ccn1N1CCOCC1 | 258
21 | Nc1ncnc2[nH]cnc12 | 360 to 365
22 | Cc1ccc(C)n1-c1ccsc1C(=O)NN | 135 to 136

Row | Compound | melting point [°C]
23 | CCOC(=O)Nc1ccc2cc3ccc(NC)c(CO)c3nc2c1 | 145
24 | Cc1cc(C)c([N+](=O)[O-])cc1C | 71
25 | CCCCCOC(=O)C1=C(C)NC(=O)NC1c1ccco1 (stereo unspecified) | 166 to 167
26 | COc1ccc(Cl)cc1C#N | 100
27 | Nc1ccc(-n2cncn2)cc1 | 142 to 144
28 | Oc1ccccc1Cc1ccccc1 | 52
29 | CC(=O)Oc1cccc(O)c1 | 55
30 | CC(C)(C)C(=O)Oc1ccc([N+](=O)[O-])cc1 | 92 to 96
31 | CC(=O)OC1CCC2(C)C(C1)CC1(OCCO1)C1C2CCC2(C)C1CCC21OCCO1 (stereo unspecified) | 205 to 210
32 | IC=CI | -14
33 | N=C1N=C2CCC(c3ccccc3)=NN2CN1 | 240 to 242
34 | Cc1nc(I)c(I)[nH]1 | 194 to 195
35 | Nc1ncccc1Cl | 61
36 | CCNc1nc(Cl)nc(NC(C)(C)C)n1 | 178
37 | O=[N+]([O-])c1ccc(SCl)c([N+](=O)[O-])c1 | 99
38 | O=c1ccc(=O)[nH][nH]1 | 306
39 | CCOC(=O)c1c(NC(=S)NCc2ccccc2)sc2c1CCN(Cc1ccccc1)C2 | 135 to 138
40 | COC(=O)c1ccc2nccnc2c1 | 99 to 100
41 | Brc1noc2ncccc12 | 135
42 | CCCCN(CCCC)c1ccccc1 | -32.2
43 | C=C(Cl)C#N | -65
44 | CC(=O)OC1CCC2(C)C(=CCC3C4CC(C)C(=O)C4(C)CCC32)C1 (stereo unspecified) | 141

Row | Compound | melting point [°C]
45 | Cc1ccc(S(=O)(=O)OCCOCc2ccccc2)cc1 | 48 to 51
46 | CN(C)C(=O)c1ccccc1 | 44
47 | O=C(O)c1ccc(F)c(F)c1 | 122 to 125
48 | CCOC(=O)C12C(c3ccccc3OP1(=O)OCC)C1(C(=O)OCC)C2c2ccccc2OP1(=O)OCC (stereo unspecified) | 249 to 251
49 | CC1CCNCC1 | 5
50 | O=S(c1ccc(Cl)cc1)c1ccc(Cl)cc1 | 140 to 145
51 | C#CC1(OC(C)=O)CCC2C3CCC4=CC(=O)CCC4C3CCC21C (stereo unspecified) | 162
52 | OC[C@H]1O[C@@H](Oc2ccccc2)[C@H](O)[C@@H](O)[C@@H]1O | 177
53 | CCCCCCCCCCCC(=O)OCCOCCO | 17.5
54 | CCCCC(=O)OCN1C(=O)NC(c2ccccc2)(c2ccccc2)C1=O | 91
55 | CCCCC(CC)COP(=O)(Oc1ccccc1)Oc1ccccc1 (stereo unspecified) | -54
56 | Brc1cccc(Br)c1 | -7
57 | Nc1cccc(-n2ccccc2=O)c1 | 182
58 | O=C1OC(=O)c2ccc(Cl)c3cccc1c23 | 207 to 210
59 | O=C(c1cccs1)c1coc(-c2ccc(Cl)cc2)c1S(=O)(=O)c1ccccc1 | 115
60 | c1ccc2c(c1)OCCOCCOCCOCCOc1ccccc1OCCOCCOCCOCCO2 | 104 to 108
61 | OCCCc1nc2ccccc2[nH]1 | 164 to 166
62 | O=C(NC1CCCCC1)c1ccccc1 | 145
63 | CCOC(=O)c1cc(C(C)=O)ccc1OCC | 53
64 | COc1ccc(S(=O)(=O)Cl)cc1F | 79
65 | CCCCCCCC(=O)OCCCC | -42.9
66 | Cc1cc(CO)nn1-c1ccccn1 | 44 to 46

Row | Compound | melting point [°C]
67 | COc1ncccc1C(=O)O | 149
68 | CC(=O)C(C)O (stereo unspecified) | 15
69 | CN[C@H](CC(=O)O)C(=O)O | 187 to 192
70 | O=C(O)C1CCCNC1 (stereo unspecified) | 246 to 253
71 | Oc1ccccc1[C@H]1C[C@H](c2ccccc2)Sc2ccccc2N1 | 89.8
72 | N#C/C(=N\Nc1c(Br)cc(Br)cc1Br)c1nc2ccccc2s1 | 179
73 | Nc1n[nH]c(S)n1 | 300
74 | CC(=O)Nc1cc(NC(C)=O)c(C=Cc2ccccc2)c(NC(C)=O)c1C=Cc1ccccc1 | 330
75 | COc1ccc(OC)c(CCl)c1 | 69 to 71
76 | COC(=O)c1cncn1C | 57
77 | Cc1c(CO)cnn1-c1ccccc1 | 88 to 89
78 | CC1(C)OC(=O)C(=Cc2ccc([N+](=O)[O-])cc2)C(=O)O1 | 301
79 | CC(C)=CCCC=C(C)C | -74.4
80 | CC12CCC3C(CCC4CC(C#N)CCC43C)C1CCC2=O (stereo unspecified) | 164
81 | Ic1ccc2c(c1)Oc1ccccc1O2 | 95
82 | ClC1=C(Cl)C2(Cl)C3C(Cl)OC(Cl)C3C1(Cl)C2(Cl)Cl (stereo unspecified) | 121
83 | Cc1ccc(Cl)c(Cl)c1Cl | 43.5
84 | Cc1cc2ccccc2nc1Cl | 83 to 84
85 | C=C1C(=O)C23C(OC(C)=O)CC4C(C)(C)CCCC4(COC(C)=O)C2C(OC(C)=O)CC1C3OC(C)=O (stereo unspecified) | 226
86 | Nc1c(I)cc(I)c(C(=O)O)c1I | 196 to 199
87 | CCN(CC)C(=S)SC(=S)N(CC)CC | 31
88 | CC(=Cc1ccccc1)c1ccccc1 | 82

Row | Compound | melting point [°C]
89 | CC(Cc1ccccc1)c1ccccc1 (stereo unspecified) | 52
90 | COC(=O)c1cc(C)c(S(=O)(=O)Cl)s1 | 40 to 41
91 | N=C(N)NC(N)=S | 172
92 | NCCNC(=O)C(=O)NCc1ccccn1 | 257
93 | CC(C=Cc1ccc(C=CC(C)=NO)cc1)=NO | 280
94 | O=C(NC(=O)c1c(F)cccc1F)Nc1cc(Cl)c(OC(F)(F)C(F)F)c(Cl)c1 | 204
95 | ICCCCCCCCCCI | 30
96 | C=CCC1=C(C)C(OC(=O)C2C(C=C(C)C)C2(C)C)CC1=O (stereo unspecified) | 4
97 | Cc1csc(=S)n1O | 88 to 93
98 | CC(=O)Oc1cc(C(C)C)c(OCCN(C)C)cc1C | 144
99 | COc1cc(F)c(C=O)cc1OC | 99
100 | Cc1cc(C(=O)O)cc(C(=O)O)c1 | 299
101 | C=C(C)C(=O)OCCOC(=O)c1cc([N+](=O)[O-])cc([N+](=O)[O-])c1 | 71
102 | Cn1ccc(-c2ccc(CCl)cc2)n1 | 78 to 80
103 | O=C1[C@@H](Oc2ccccc2)[C@@H](c2ccccc2)N1[C@@H](Sc1ccccc1)c1ccccc1 | 194
104 | O=C(O)c1ccc2c(c1)OCCOCCOCCOCCO2 | 188 to 191
105 | O=C(c1ccc(F)cc1)c1ccccc1F | 22 to 24
106 | CCCC(C)OC(C)=O (stereo unspecified) | -100
107 | CCCCCCCCOC(=O)CCCCC | -28
108 | CC(C)(C)OC[C@H](NC(=O)OCC1c2ccccc2-c2ccccc21)C(=O)O | 127 to 131
109 | Cc1ccc(S(=O)(=O)N(Cl)Cl)cc1 | 83
110 | C=C(C)c1ccc(C)c2ccc(C=O)c-2c1 | 58

Row | Compound | melting point [°C]
111 | Oc1ccccc1CNCc1ccccc1O | 162
112 | Fc1c(F)c(CCl)c(F)c(F)c1CCl | 77 to 78
113 | C=C1CCC(O)CC1=CC=C1CCCC2(C)C1CCC2C(C)CCCC(C)C (stereo unspecified) | 84.5
114 | CC(=N[Si](C)(C)C)O[Si](C)(C)C | 24
115 | Cn1c(N)cc(=O)[nH]c1=O | 300
116 | Fc1ccc(-c2ccno2)cc1 | 55
117 | CN[C@@H](Cc1c[nH]c2ccccc12)C(=O)O | 295
118 | N#CC1=C(N)N2C(=C(C#N)C1c1ccc(Cl)cc1)Sc1ccccc12 (stereo unspecified) | 209
119 | COC(=O)c1ccc(OCNC(=O)c2ccccc2)cc1 | 142 to 143
120 | N#Cc1scc2c1OCCO2 | 70
121 | N#C/C(=C/c1cccnc1)c1nc(-c2ccc(Cl)cc2)cs1 | 253
122 | CCCCCCCCCCCCCCCCCCc1ccccc1 | 29
123 | O=C(Cc1ccccc1)C(=O)Cc1ccccc1 | 86
124 | Cc1nc(-c2ccc(C(F)(F)F)cc2)sc1CO | 119 to 122
125 | CC(=O)OC1=C(C)C2(OC(C)=O)CCC1C1C(=O)NC(=O)C12 (stereo unspecified) | 161 to 162
126 | O=C(O)c1c(Cl)ccc(Cl)c1Cl | 125
127 | O=C1CCCc2c(O)cccc21 | 207 to 210
128 | O=S(=O)(Cl)c1ccccc1Br | 50 to 51
129 | c1ccc(Cc2cc3ccccc3cn2)cc1 | 64
130 | O=C(O)C(F)(F)C(F)(F)C(F)(F)C(F)(F)C(F)(F)C(F)(F)C(F)(F)C(F)(F)F | 65
131 | Nc1cc(C(F)(F)F)cc(Br)c1N | 60 to 62
